Legend:
Settings in all cases: exposure time: 72 h
E13 [1] = patient-derived glioblastoma stem cells of classical subtype; assay: surviving fraction (nuclei count normalised to DMSO); higher = more cells surviving (less toxic)
E21 [2] = patient-derived glioblastoma stem cells of mesenchymal subtype; assay: as above
E28 [3] = patient-derived glioblastoma stem cells of classical subtype; assay: as above
E31 [4] = patient-derived glioblastoma stem cells of proneural subtype; assay: as above
E34 [5] = patient-derived glioblastoma stem cells of proneural subtype; assay: as above
E57 [6] = patient-derived glioblastoma stem cells of mesenchymal subtype; assay: as above
FT3469 [7] = normal neural stem cell line; assay: as above
E13 [8] = assay: phenotypic distance (Euclidean, principal components) from DMSO controls (arbitrary units); higher = stronger morphological change
E21 [9] = assay: as above
E28 [10] = assay: as above
E31 [11] = assay: as above
E34 [12] = assay: as above
E57 [13] = assay: as above
FT3469 [14] = assay: as above
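Throughout, for phenotypic distance (Euclidean, principal components) from DMSO controls: cell Painting imaging in 384-well plates, CellProfiler features reduced to at least 20 principal components, Euclidean distance versus same-plate DMSO vehicle wells (0.1% v/v), median over six images per well.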
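Throughout, for surviving fraction (nuclei count normalised to DMSO): nuclei counted by high-content imaging of Hoechst-stained cells in laminin-coated 384-well plates, relative to 0.1% DMSO vehicle wells, with staurosporine as cell-death control.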

CCCCCCCCCCCCCCCC[N+](C)(C)CCN(Cc1ccc(OC)cc1)c1ncccn1 [Thonzonium bromide]
Settings	phenotypic distance	surviving fraction
E13 [1], 4.1 nM	–	1.04
E13 [1], 12.3 nM	–	0.969
E13 [1], 37 nM	–	0.906
E13 [1], 111.1 nM	–	0.816
E13 [1], 333.3 nM	–	0.606
E13 [1], 1000 nM	–	0.555
E13 [1], 3000 nM	–	0.19
E13 [8], 4.1 nM	0.516	–
E13 [8], 12.3 nM	0.581	–
E13 [8], 37 nM	0.657	–
E13 [8], 111.1 nM	1.02	–
E13 [8], 333.3 nM	1.87	–
E13 [8], 1000 nM	1.97	–
E13 [8], 3000 nM	5.26	–
E21 [2], 4.1 nM	–	0.966
E21 [2], 12.3 nM	–	1.03
E21 [2], 37 nM	–	1.03
E21 [2], 111.1 nM	–	0.987
E21 [2], 333.3 nM	–	0.962
E21 [2], 1000 nM	–	0.854
E21 [2], 3000 nM	–	0.00843
E21 [9], 4.1 nM	0.872	–
E21 [9], 12.3 nM	0.488	–
E21 [9], 37 nM	0.498	–
E21 [9], 111.1 nM	0.528	–
E21 [9], 333.3 nM	1.11	–
E21 [9], 1000 nM	1.7	–
E21 [9], 3000 nM	15.4	–
E28 [3], 4.1 nM	–	1.08
E28 [3], 12.3 nM	–	0.936
E28 [3], 37 nM	–	1.09
E28 [3], 111.1 nM	–	1.01
E28 [3], 333.3 nM	–	0.814
E28 [3], 1000 nM	–	0.696
E28 [3], 3000 nM	–	0.00389
E28 [10], 4.1 nM	0.34	–
E28 [10], 12.3 nM	0.451	–
E28 [10], 37 nM	0.622	–
E28 [10], 111.1 nM	1.04	–
E28 [10], 333.3 nM	0.781	–
E28 [10], 1000 nM	1.5	–
E28 [10], 3000 nM	13.5	–
E31 [4], 4.1 nM	–	1.16
E31 [4], 12.3 nM	–	1.1
E31 [4], 37 nM	–	1.09
E31 [4], 111.1 nM	–	0.966
E31 [4], 333.3 nM	–	0.882
E31 [4], 1000 nM	–	0.731
E31 [4], 3000 nM	–	0.034
E31 [11], 4.1 nM	0.672	–
E31 [11], 12.3 nM	0.609	–
E31 [11], 37 nM	0.797	–
E31 [11], 111.1 nM	1.23	–
E31 [11], 333.3 nM	1.32	–
E31 [11], 1000 nM	1.09	–
E31 [11], 3000 nM	9.07	–
E34 [5], 4.1 nM	–	1.03
E34 [5], 12.3 nM	–	0.954
E34 [5], 37 nM	–	1.04
E34 [5], 111.1 nM	–	0.965
E34 [5], 333.3 nM	–	0.876
E34 [5], 1000 nM	–	0.699
E34 [5], 3000 nM	–	0.0452
E34 [12], 4.1 nM	0.779	–
E34 [12], 12.3 nM	0.535	–
E34 [12], 37 nM	0.676	–
E34 [12], 111.1 nM	0.729	–
E34 [12], 333.3 nM	1.9	–
E34 [12], 1000 nM	1.38	–
E34 [12], 3000 nM	10.2	–
E57 [6], 4.1 nM	–	0.925
E57 [6], 12.3 nM	–	1.04
E57 [6], 37 nM	–	1.04
E57 [6], 111.1 nM	–	1.04
E57 [6], 333.3 nM	–	1.13
E57 [6], 1000 nM	–	1.01
E57 [6], 3000 nM	–	0.00426
E57 [13], 4.1 nM	0.446	–
E57 [13], 12.3 nM	0.566	–
E57 [13], 37 nM	0.663	–
E57 [13], 111.1 nM	1.07	–
E57 [13], 333.3 nM	1.33	–
E57 [13], 1000 nM	1.72	–
E57 [13], 3000 nM	9.5	–
FT3469 [7], 4.1 nM	–	0.999
FT3469 [7], 12.3 nM	–	0.934
FT3469 [7], 37 nM	–	0.968
FT3469 [7], 111.1 nM	–	0.955
FT3469 [7], 333.3 nM	–	0.924
FT3469 [7], 1000 nM	–	0.859
FT3469 [7], 3000 nM	–	0.00702
FT3469 [14], 4.1 nM	0.743	–
FT3469 [14], 12.3 nM	3.16	–
FT3469 [14], 37 nM	0.638	–
FT3469 [14], 111.1 nM	0.6	–
FT3469 [14], 333.3 nM	0.582	–
FT3469 [14], 1000 nM	0.946	–
FT3469 [14], 3000 nM	11.4	–

CC[C@@]1(O)C(=O)OCc2c1cc1n(c2=O)Cc2cc3cc(O)ccc3nc2-1 [Hydroxy Camptothecine]
Settings	phenotypic distance	surviving fraction
E13 [1], 4.1 nM	–	0.295
E13 [1], 12.3 nM	–	0.298
E13 [1], 37 nM	–	0.269
E13 [1], 111.1 nM	–	0.241
E13 [1], 333.3 nM	–	0.178
E13 [1], 1000 nM	–	0.197
E13 [1], 3000 nM	–	0.141
E13 [8], 4.1 nM	5.76	–
E13 [8], 12.3 nM	6.4	–
E13 [8], 37 nM	5.69	–
E13 [8], 111.1 nM	6.9	–
E13 [8], 333.3 nM	6.25	–
E13 [8], 1000 nM	6.56	–
E13 [8], 3000 nM	6.55	–
E21 [2], 4.1 nM	–	0.133
E21 [2], 12.3 nM	–	0.115
E21 [2], 37 nM	–	0.12
E21 [2], 111.1 nM	–	0.161
E21 [2], 333.3 nM	–	0.135
E21 [2], 1000 nM	–	0.106
E21 [2], 3000 nM	–	0.119
E21 [9], 4.1 nM	4.52	–
E21 [9], 12.3 nM	4.56	–
E21 [9], 37 nM	5.14	–
E21 [9], 111.1 nM	4.89	–
E21 [9], 333.3 nM	4.81	–
E21 [9], 1000 nM	5.63	–
E21 [9], 3000 nM	5.74	–
E28 [3], 4.1 nM	–	0.341
E28 [3], 12.3 nM	–	0.331
E28 [3], 37 nM	–	0.313
E28 [3], 111.1 nM	–	0.331
E28 [3], 333.3 nM	–	0.268
E28 [3], 1000 nM	–	0.219
E28 [3], 3000 nM	–	0.151
E28 [10], 4.1 nM	3	–
E28 [10], 12.3 nM	2.79	–
E28 [10], 37 nM	3.94	–
E28 [10], 111.1 nM	2.28	–
E28 [10], 333.3 nM	3.33	–
E28 [10], 1000 nM	3.32	–
E28 [10], 3000 nM	3.06	–
E31 [4], 4.1 nM	–	0.159
E31 [4], 12.3 nM	–	0.166
E31 [4], 37 nM	–	0.174
E31 [4], 111.1 nM	–	0.231
E31 [4], 333.3 nM	–	0.223
E31 [4], 1000 nM	–	0.203
E31 [4], 3000 nM	–	0.201
E31 [11], 4.1 nM	3.54	–
E31 [11], 12.3 nM	2.94	–
E31 [11], 37 nM	3.69	–
E31 [11], 111.1 nM	2.96	–
E31 [11], 333.3 nM	3.02	–
E31 [11], 1000 nM	4.3	–
E31 [11], 3000 nM	4.23	–
E34 [5], 4.1 nM	–	0.494
E34 [5], 12.3 nM	–	0.492
E34 [5], 37 nM	–	0.608
E34 [5], 111.1 nM	–	0.446
E34 [5], 333.3 nM	–	0.509
E34 [5], 1000 nM	–	0.496
E34 [5], 3000 nM	–	0.569
E34 [12], 4.1 nM	3.37	–
E34 [12], 12.3 nM	3.46	–
E34 [12], 37 nM	1.84	–
E34 [12], 111.1 nM	2.93	–
E34 [12], 333.3 nM	2.95	–
E34 [12], 1000 nM	3.66	–
E34 [12], 3000 nM	3.13	–
E57 [6], 4.1 nM	–	0.14
E57 [6], 12.3 nM	–	0.165
E57 [6], 37 nM	–	0.148
E57 [6], 111.1 nM	–	0.157
E57 [6], 333.3 nM	–	0.144
E57 [6], 1000 nM	–	0.136
E57 [6], 3000 nM	–	0.13
E57 [13], 4.1 nM	6.51	–
E57 [13], 12.3 nM	6.72	–
E57 [13], 37 nM	6.63	–
E57 [13], 111.1 nM	5.99	–
E57 [13], 333.3 nM	6.28	–
E57 [13], 1000 nM	6.33	–
E57 [13], 3000 nM	5.89	–
FT3469 [7], 4.1 nM	–	0.616
FT3469 [7], 12.3 nM	–	0.73
FT3469 [7], 37 nM	–	0.51
FT3469 [7], 111.1 nM	–	0.563
FT3469 [7], 333.3 nM	–	0.489
FT3469 [7], 1000 nM	–	0.442
FT3469 [7], 3000 nM	–	0.445
FT3469 [14], 4.1 nM	1.58	–
FT3469 [14], 12.3 nM	1.79	–
FT3469 [14], 37 nM	2.15	–
FT3469 [14], 111.1 nM	1.67	–
FT3469 [14], 333.3 nM	2.41	–
FT3469 [14], 1000 nM	3.08	–
FT3469 [14], 3000 nM	3.19	–

Source: the supplement of paper PMC13207355
